In brackets after ≈: the same amount, converted by molar mass.
Experiments:
Calu-6 cells = test: Cytotoxicity assay in Calu-6 cells (crystal violet); assay type: cell-based; conditions: 48 hr
Procedure: (§1) Calu-6 cells and RITA cells were grown in DMEM cell culture medium containing 10% fetal calf serum in CO2 incubator under 5% CO2 at 37° C. with 100% humidity.
(§2) For cytotoxicity assay, Calu-6 cells were seeded in 96 well plates at a density of 3×10^6 cells per plate in the DMEM cell culture medium. The plates were incubated at 37° C. in the presence of 5% CO2 for 24 hr. The DMEM cell culture medium in the plates was exchanged with fresh DMEM cell culture medium containing test compounds at a series of concentrations. The plates were incubated at 37° C. in the presence of 5% CO2 for 48 hr. The plates were then washed with PBS, fixed with 3% formaldehyde solution containing 0.9% NaCl for 1 min, washed by water for 10 sec, and dried overnight. For detection, the plates were stained with crystal violet solution for 5 min at room temperature, washed 5 times with water, and dried at room temperature overnight. After adding ethanol/acetic acid (99:1, v/v, […]) to each well, the plates were measured at 595 nm using an ELISA reader. A dose response curve was obtained for each compound tested by plotting the mean values of the optical densities against compound concentration.

HPV-31 specific DNA [1] = test: Long-term study: HPV-31 specific DNA level (Southern blot); assay type: cell-based, human papilloma virus; conditions: for T50 DNA: at 10 μg/mL
Procedure: (§3) HPV-31 infected cells (3×10^6) were dispensed into 14.5 cm dishes containing fresh E medium and 1×10^6 cells of mitomycin C-treated 3T3 fibroblast feeders. The dishes were incubated in a CO2 incubator under 5% CO2 at 37° C. in 100% humidity. Human A431 epithelial cancer cells were used as HPV-uninfected negative controls. After 6 hr incubation, the cell culture medium was removed and fresh E medium containing 0.85 g/L NaHCO3 and a test compound at concentrations of 10 and 3.3 μg/mL, or control (interferon γ at 200 IU/mL) were added. For each concentration, 4 dishes were prepared. The dishes were incubated at 37° C. in a CO2 incubator. The culture medium was replaced to new E medium containing each concentration of the test compound or control in every 72 hrs. After seven days, or when untreated cells became confluent, one dish of each group was harvested for DNA/RNA extraction, followed by Southern/Northern Blot analysis; and one dish was trypsinized, cell number were determined and cells were seeded in three new dishes, treated and cultured as described above. This procedure was repeated for 9 passages. During these passages, morphology of cells and cell density were monitored.
(§4) Effect on HPV-31 specific DNA and RNA: DNA and RNA were analyzed in Southern and Northern Blot gels for HPV-31 specific sequences. X-ray films were scanned and optical densities of HPV-31 specific DNA and major mRNA species were integrated. Time curves were established by plotting integrated values against number of passages for each treatment dose. The T50 (time required to reduce the level to 50% of control) was determined from the time curves from crossing points of time curves with a line parallel to the x-axis corresponding to 50% of integrals of untreated control sample.

[2] = tested on: HPV-31-infected CIN612 9E keratinocytes; test: Long-term study: cell proliferation and morphology of CIN612 9E cells over 9 passages; assay type: cell-based
Procedure: as §3
Effect on cell proliferation. Cell numbers in the dishes harvested were determined in a Neubauer hematocytometer. The multiplication factor was determined at every step of passage. The cell number of each culture at the end of the passage was divided by the number of seeded cells at the start of each passage. The end point was reached when keratinocytes treated with a test compound stopped growing. Stop of cell growth was defined as a multiplication factor of no greater than 1.

HPV-31 specific RNA [3] = test: Long-term study: HPV-31 specific RNA level (Northern blot); assay type: cell-based, human papilloma virus; conditions: for T50 RNA: at 10 μg/mL
Procedure: as §3, §4

HPV-31 specific RNA [4] = test: Short-term study: HPV-31 specific RNA expression (Northern blot); assay type: cell-based, human papilloma virus; conditions: 72 hrs
Procedure: (§5) Effect on HPV-31 specific DNA and RNA. HPV-31 infected cells (3×10^6) were dispensed into 14.5 cm dishes containing fresh E culture medium and 1×10^6 mitomycin C-treated J2 3T3 fibroblast feeders. After 6 hrs, fresh medium containing 0.85 g/L NaHCO3 and a test compound at a series of concentrations (0, 0.5, 1, 2, 4, 8, 16, and 32 μg/mL) were added. All samples were tested in duplicates at each concentration. After incubation at 37° C. for 72 hrs, the feeder cells were removed with 4 mM EDTA, and DNA and RNA was then isolated. The isolated DNA and RNA were analyzed in Southern and Northern Blot gels for HPV-31 specific sequences. Human A431 epithelial cancer cells were used as HPV-uninfected negative control. X-ray films were scanned and optical densities of HPV-31 specific DNA and major mRNA species were integrated.
(§6) Dose response curves were established by plotting integrated values against the concentrations of the test compound.

[5] = target: T1, phosphatidylcholine-specific phospholipase C (PC-PLC) (Bacillus cereus, UniProt P09598); test: Amplex Red phosphatidylcholine-specific phospholipase C (PC-PLC) inhibition assay; assay type: biochemical, B. cereus; conditions: 30 min at 37° C., triplicate
T1 construct: purchased Invitrogen
T1 sequence (P09598 39-283 limits assumed): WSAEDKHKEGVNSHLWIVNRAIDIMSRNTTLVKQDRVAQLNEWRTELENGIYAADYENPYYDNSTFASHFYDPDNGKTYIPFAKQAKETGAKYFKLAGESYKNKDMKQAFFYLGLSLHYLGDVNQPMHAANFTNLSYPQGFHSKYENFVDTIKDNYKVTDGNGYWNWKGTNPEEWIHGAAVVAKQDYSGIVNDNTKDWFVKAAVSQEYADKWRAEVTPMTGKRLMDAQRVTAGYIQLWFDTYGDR
Procedure: (§7) The inhibitory activities of optically active potassium salts of (+)- and (−)-O-exo/C-exo-tricyclo [5.2.1.0^2,6]-dec-9-yl-xanthic acid 1A ((+)- and (−)-enantiomers 1A) against phosphatidylcholine-specific phospholipase C were evaluated, together with D609 and potassium salt of racemic O-exo/C-exo xanthic acid 1A (racemic 1A), using Amplex Red phosphatidylcholine-specific phospholipase C(PC-PLC) assay kit, which was obtained from Invitrogen (Calsbad, Calif.). D609 was obtained from Sigma Aldrich.
(§8) An Amplex Red stock solution (˜20 mM), a working reaction buffer, and a horseradish peroxidase stock solution (200 U/mL), a H2O2 working solution (20 mM), a choline oxidate stock solution (20 U/mL), an alkaline phosphatase stock solution (400 U/mL), and a B. cereus PC-PLC stock solution (10 U/mL) were prepared according to the instruction of the assay kit. The stock solution (100 mg/mL) for each test compound was also prepared by dissolving the compound in water 2 hr prior to the start of the experiment.
(§9) A working Amplex Red/HRP/lecithin solution was prepared by adding 200 μL of Amplex Red reagent stock solution, 100 μL of HRP stock solution, 200 μL of alkaline phosphatase stock solution, 100 μL of choline oxidase stock solution, and 78 μL of the lecithin solution to […] of the working reaction buffer. PC-PLC solution (0.2 U/mL) was prepared by diluting the PC-PLC stock solution with the working reaction buffer to the desired concentration.
(§10) The test compound (25 μL) at a serious of concentrations was pipetted into a 96 well plate. For uninhibited PC-PLC controls and non-PC-PLC controls, 25 μL of water was added. After the addition of 50 μL of the Amplex Red/HRP/lecithin working solution, the reaction was initiated by adding 25 μL of PC-PLC solution to each well. To the non-PC-PLC controls, 25 μL of water was added instead of PC-PLC solution. The experiment was performed in triplicate. The reactions were protected from light. After incubated for 30 min at 37° C., the reactions were measured with a fluorescence microplate reader using excitation at 550 nm and emission detection at 590 nm. The fluorescent data obtained were corrected for background fluorescence by subtracting the values obtained from the non-PC-PLC controls.

HPV-31 specific DNA [6] = test: Short-term study: HPV-31 specific DNA (Southern blot); assay type: cell-based, human papilloma virus; conditions: at 32 μg/mL, 72 hrs
Procedure: as §5, §6

[7] = Cytotoxicity assay in Calu-6 cells; assay type: cell-based; conditions: human, 37° C., read-out: LD50
Procedure: as §1, §2

[8] = target: T2, B. cereus PC-PLC (phosphatidylcholine-specific phospholipase C) (Bacillus cereus, UniProt P09598); test: Inhibition of phosphatidylcholine-specific phospholipase C (Amplex Red PC-PLC assay kit); assay type: biochemical
T2 construct: purchased Invitrogen
T2 sequence (P09598 39-283 limits assumed): as above
Procedure: as §7, §8, §9
as §10, with “To the non-PC-PLC controls, 25 μL of water was added instead of PC-PLC solution. The experiment was performed in triplicate. The reactions were protected from light.” left out

[9] = tested on: phosphatidylcholine-specific phospholipase C (PC-PLC); conditions: Amtmann 1996; Muller-Decker 1989; cited from earlier work
[10] = tested on: bovine papilloma virus type I (BPV-1)-transformed HEF (HEF-BPV); test: Inhibition of bovine papilloma virus, BPV-infected hamster embryo fibroblasts (HEF) cell proliferation assay; assay type: cell-based; conditions: Bos taurus papillomavirus 1; HEF-BPV, 72 hr, 37° C., pH 6.8; read-out: IC50
Procedure: Briefly, hamster embryo fibroblasts and bovine papilloma virus type I (BPV-1)-transformed HEF (HEF-BPV) were grown in Eagle's basal medium. […] and HEF cells were seeded in 96-well plates at a density of 0.5×10^6 cells per plate in DMEM cell culture medium containing 10% fetal calf serum at pH 6.8. The plates were then incubated in the presence of 5% CO2 in 100% humidity at 37° C. After 6 hr, the cell culture medium in the plates was exchanged with fresh DMEM cell culture medium containing test compounds at a series of concentrations. The plates were incubated at 37° C. for additional 72 hr. Cells in the plates were then washed with PBS, fixed with 3% formaldehyde solution containing 0.9% NaCl for 1 min, washed by water for 10 sec, and dried overnight. For detection, the plates were stained with crystal violet solution for 5 min at room temperature, washed 5 times with water, and dried at room temperature overnight. After adding ethanol/acetic acid (99:1, v/v, […]) to each well, the plates were measured at 595 nm using an ELISA reader.

[11] = tested on: Herpes simplex virus type-2 (HSV-2); test: Inhibition of HSV-2 (plaque assay; Calu-6 infected, RITA cells for plaques); assay type: cell-based
Procedure: as §1
For HSV-2 inhibition, Calu-6 cells were seeded in 96 well plates at a density of 3×10^6 cells per plate in the DMEM cell culture medium. The plates were incubated at 37° C. in the presence of 5% CO2 for 24 hr. The DMEM cell culture medium in the plates was removed and the cells were infected with Herpes simplex virus type-2 at 50 plaque forming units per well. After incubation at 37° C. for 60 min, test compounds in DMEM cell culture medium at a series of concentrations were added. The plates were incubated at 37° C. in the presence of 5% CO2 for 48 hr. The plates were frozen at −20° C. prior to further analysis. After thawing at room temperature, supernatants containing infectious virus particles were prepared by centrifuging the supernatant from each well at 18,000 g at 4° C. for 5 min. The supernatant was further diluted before assay.
RITA cells were seeded in 24 well Linbra plates at a density of 4×10^6 cells per plate in 2 mL of DMEM cell culture medium. The plates were incubated at 37° C. in the presence of 5% CO2 for 24 hr. After the removal of the cell culture medium, 0.1 mL of the diluted supernatants was added and the plates were incubated at 37 C for 1 hr. DMEM cell medium containing 10% fetal calf serum and 0.5% methyl cellulose was added and the plates were incubated at 37 for 48 hr. The plates were then washed with PBS, fixed with 3% formaldehyde solution containing 0.9% NaCl for 1 min, washed by water for 10 sec, and dried overnight. For detection, the plates were then stained with crystal violet solution for 5 min at room temperature, washed 5 times with water, and dried at room temperature overnight. The number of plaques was determined macroscopically. The number of plaques per well was then multiplied with the dilution factor. Dose response curves were obtained by plotting the number of plaques/0.1 mL against compound concentration. The therapeutic index was also calculated for each compound by dividing LD50 with IC50.

## S=C(S)OC1CC2CC1C1CCCC21 (single isomer, unassigned; enantiomer 1a) [(−)-Enantiomer 1A, (−)-O-exo/C-exo-tricyclo[5.2.1.0^2,6]-dec-9-yl-xanthic acid 1A]
Calu-6 cells
  LD50: 94.32 ± 7.33 µg/mL
HPV-31 specific DNA [1]; 10 μg/mL, after 6 passages
  number of viral genomes per cell remaining: < 5%
HPV-31 specific DNA [1]; 10 μg/mL, after 9 passages
  viral DNA remaining: < 1%
HPV-31 specific DNA [1]; 10 μg/mL, after a single passage
  reduction of the number of viral genomes per cell: more than 50%
HPV-31 specific DNA [1]; listed as (−)-enantiomer 1A
  T50 DNA: < 1 passages
HPV-31 specific DNA [1]; listed as Cmpd 1A
  T50 DNA: <1 passages
[2]; 3.3 μg/mL, passage 1
  multiplication factor: 2.9
[2]; 3.3 μg/mL, passage 9
  multiplication factor: 1.1
[2]; 10 μg/mL, from passage 7 on
  multiplication factor: < 1
[2]; 10 μg/mL, passage 5
  multiplication factor: 2.4
[2]; 10 μg/mL, passage 6
  multiplication factor: 1.3
[2]; 10 μg/mL, passage 9
  multiplication factor: 0.1
HPV-31 specific RNA [3]; 10 μg/mL, after 9 passages
  viral RNA remaining: < 1%
HPV-31 specific RNA [3]; listed as (−)-enantiomer 1A
  T50 RNA: < 1 passages
HPV-31 specific RNA [3]; listed as Cmpd 1A
  T50 RNA: <1 passages
HPV-31 specific RNA [4]
  IC50 on the inhibition of HPV-31 specific RNA expression: 10.7 µg/mL
[5]
  IC50: 3.62 ± 0.17 µg/mL (≈ 15.9 µM)
HPV-31 specific DNA [6]
  inhibition of HPV-31 specific DNA: 37.5%

## S=C(S)OC1CC2CC1C1CCCC21 (centres unmarked) [Compound D609, tricyclodecan-9-yl-xanthogenate]
Calu-6 cells
  LD50: 105.18 ± 21.97 µg/mL
[7]
  CC50 at 48 h: 105 ± 22 µg/mL (≈ 461 µM)
[5]
  IC50: 20.49 ± 1.99 µg/mL (≈ 89.7 µM)
[8]
  IC50: 89.7 µM
[9]
  inhibition of phosphatidylcholine-specific phospholipase C: specific inhibitor
[10]
  IC50: 21.6 ± 1.85 µg/mL (≈ 94.8 µM)
[11]; Human alphaherpesvirus 2, Calu-6 cells, 48 hr, 50 plaque forming units per well, read-out: IC50
  IC50: 30.2 ± 6.77 µg/mL (≈ 132 µM)
[11]; LD50 (Calu-6) divided by IC50 (HSV-2), 2880 min
  Therapeutic Index: 3.5

— patent US20100240746A1, “STEREOISOMERS OF TRICYCLODECAN-9-YL-XANTHOGENATE” (LUMAVITA AG, priority 2007, published 2010)
